Structures are written as SMILES. pIC50: −log10 of the molar value.

This test addresses T1, recombinant human GST-SYK (Homo sapiens, UniProt P43405).
T1 construct: purchased Carna Biosciences 08-176
Briefly: Homogeneous Time-Resolved Fluorescence (HTRF) assay for the recombinant human Syk enzyme. Type of test: biochemical. As to conditions: HTRF assay, recombinant human GST-SYK; IC50 given as class symbols; read-out: rhSYK Activity. The procedure: Homogeneous Time-Resolved Fluorescence (HTRF) Assay for the Recombinant Human Syk Enzyme
A recombinant GST-hSYK fusion protein was used to measure potency of compounds to inhibit human Syk activity. The recombinant human GST-SYK (Carna Biosciences #08-176) ([…]) was incubated with various concentrations of the inhibitor diluted in DMSO (0.1% final concentration) for 10 minutes at room temperature in 15 mM Tris-HCl (pH 7.5), 0.01% tween 20, 2 mM DTT in 384 well plate format. To initiate the reaction the biotinylated substrate peptide (250 nM final concentration) that contains the phosphorylation site for Syk was added with magnesium (5 mM final concentration) and ATP (25 μM final concentration). Final volume of the reaction was 10 μL. Phosphorylation of the peptide was allowed to proceed for 45′ at room temperature. To quench the reaction and detect the phosphorylated product, 2 nM of a Europium-anti-phosphotyrosine antibody (Perkin Elmer #AD0161) and 70 nM SA-APC (Perkin-Elmer #CR130-100) were added together in 15 mM Tris pH 7.5, 40 mM EDTA, 0.01% tween 20. Final volume of the quenching solution was 10 μL. The resulting HTRF signal was measured after 30 minutes on an EnVision (Perkin-Elmer) reader using a time-resolved fluorescence protocol.
In the case of `Cc1cc(Nc2nccc(C(F)(F)F)n2)cc(-c2cncc(C3(O)CCC(C(=O)O)C3)c2)c1` (stereo not shown) [Example 9.67, 3-hydroxy-3-[5-(3-methyl-5-{[4-(trifluoromethyl)pyrimidin-2-yl]amino}phenyl)pyridin-3-yl]cyclopentanecarboxylic acid], the pIC50 was above 7.00.

Take `Cc1cc(Nc2nccc(C(F)(F)F)n2)cc(-c2ccc(C(=O)N3CCNC(=O)CC3)nc2)c1` [Example 16.19, 1-{[5-(3-methyl-5-{[4-(trifluoromethyl)pyrimidin-2-yl]amino}phenyl)pyridin-2-yl]carbonyl}-1,4-diazepan-5-one]: the pIC50 was above 7.00.

Take `FC(F)(F)c1ccnc(Nc2cc(-c3ccccn3)cc(N3CCOCC3)c2)n1` [Example 1.2, N-(3-morpholin-4-yl-5-pyridin-2-ylphenyl)-4-(trifluoromethyl)pyrimidin-2-amine]: the pIC50 was above 7.00.

With `O=C(O)CCc1cncc(-c2cccc(Nc3nccc(C(F)(F)F)n3)c2)c1` [Example 2.79, 3-[5-(3-{[4-(trifluoromethyl)pyrimidin-2-yl]amino}phenyl)pyridin-3-yl]propanoic acid], the pIC50 is above 7.00.

For `Cc1cc(Nc2nccc(C(F)(F)F)n2)cc(-c2ccc([C@]3(O)CC[C@@H](C(=O)O)CC3)nc2)c1` [Example 9.34, cis-4-hydroxy-4-[5-(3-methyl-5-{[4-(trifluoromethyl)pyrimidin-2-yl]amino}phenyl)pyridin-2-yl]cyclohexanecarboxylic acid], the pIC50 was above 7.00.

On to `CCCCOC(=O)C1CCC(C(C)(O)c2ccc(-c3cc(C)cc(Nc4nccc(OC)n4)c3)cn2)CC1` (single isomer, unassigned) [Example 9.50, butyl trans-4-[(1R or 1S)-1-hydroxy-1-(5-{3-[(4-methoxypyrimidin-2-yl)amino]-5-methylphenyl}pyridin-2-yl)ethyl]cyclohexanecarboxylate], for which the pIC50 was 6.00 to 7.00.

As to `CS(=O)(=O)c1ccc(-c2cccc(Nc3nccc(C(F)(F)F)n3)c2)nc1` [Example 2.6, N-{3-[5-(methylsulfonyl)pyridin-2-yl]phenyl}-4-(trifluoromethyl)pyrimidin-2-amine], the pIC50 was 6.00 to 7.00.

With `Cc1cc(Nc2nccc(C(F)(F)F)n2)cc(-c2ccc(C(N)=O)nc2)c1` [Example 12.6, 5-(3-methyl-5-{[4-(trifluoromethyl)pyrimidin-2-yl]amino}phenyl)pyridine-2-carboxamide], the pIC50 is above 7.00.

Take `Cc1cc(Nc2nccc(C(F)(F)F)n2)cc(-c2ccc(C(=O)N3CCS(=O)(=O)CC3)nc2)c1` [Example 16.55, N-(3-{6-[(1,1-dioxidothiomorpholin-4-yl)carbonyl]pyridin-3-yl}-5-methylphenyl)-4-(trifluoromethyl)pyrimidin-2-amine]: the pIC50 is above 7.00.

For the compound `Cc1cc(Nc2nccc(C(F)(F)F)n2)cc(-c2ccc(N3CCC3C(=O)O)nc2)c1` (stereo not shown) [Example 7.82, 1-[5-(3-methyl-5-{[4-(trifluoromethyl)pyrimidin-2-yl]amino}phenyl)pyridin-2-yl]azetidine-2-carboxylic acid], the pIC50 is above 7.00.

With `Cc1cc(Nc2nccc(C(F)(F)F)n2)cc(-c2ccc(N3CCN(CCCC(=O)O)CC3)nc2)c1` [Example 7.139, 4-{4-[5-(3-methyl-5-{[4-(trifluoromethyl)pyrimidin-2-yl]amino}phenyl)pyridin-2-yl]piperazin-1-yl}butanoic acid], the pIC50 was above 7.00.

In the case of `Cc1cc(Nc2nccc(C(F)(F)F)n2)cc(-c2ccc(C(C)(O)c3ccc(C(=O)O)cc3)nc2)c1` (stereo not shown) [Example 9.20, 4-{1-hydroxy-1-[5-(3-methyl-5-{[4-(trifluoromethyl)pyrimidin-2-yl]amino}phenyl)pyridin-2-yl]ethyl}benzoic acid], the pIC50 is above 7.00.

`CC(=O)N1CCCN(c2cc(-c3cc(C)cc(Nc4nccc(C(F)(F)F)n4)c3)ccn2)CC1` [Example 15.75, N-{3-[2-(4-acetyl-1,4-diazepan-1-yl)pyridin-4-yl]-5-methylphenyl}-4-(trifluoromethyl)pyrimidin-2-amine]: the pIC50 is 6.00 to 7.00.
